What was measured:
Experiment in all cases: relative viability (nuclei count vs DMSO), 5 days (fraction); higher = more cells survive
COR-L23 = tested on: COR-L23
In short: (§1)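 A single step with final 0.05% Triton X-100, 1% formaldehyde and 1 ug/ml Hoechst fixed the cells and stained nuclei 5 days after treatment. Lung cancer cell lines in 1536-well plates had been treated by pin tool the day after seeding with one drug alone or a fixed anchor-drug dose plus five library-drug doses (not always all listed) in √10 steps, and nuclei were counted on 4× images. Relative viability is the ratio of nuclei in treated wells to nuclei in vehicle wells, taken as the median of duplicate plates.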

SK-MES-1 = tested on: SK-MES-1
In short: as §1

Calu-6 = tested on: Calu-6
In short: as §1

NCI-H1437 = tested on: NCI-H1437
In short: as §1

SW 1573 = tested on: SW 1573
In short: as §1

NCI-H1299 = tested on: NCI-H1299
In short: as §1

ABC-1 = tested on: ABC-1
In short: as §1

A549 = tested on: A549
In short: as §1

EBC-1 = tested on: EBC-1
In short: as §1

NCI-H1651 = tested on: NCI-H1651
In short: as §1

IA-LM = tested on: IA-LM
In short: as §1

ChaGo-K-1 = tested on: ChaGo-K-1
In short: as §1

NCI-H1703 = tested on: NCI-H1703
In short: as §1

COc1nc(C)cnc1NS(=O)(=O)c1cccnc1-c1ccc(-c2nnco2)cc1 [Zibotentan] + C[C@@H](Oc1cc(-c2cnn(C3CCNCC3)c2)cnc1N)c1c(Cl)ccc(F)c1Cl [Crizotinib] (partner 1 µM)
relative viability (COR-L23; first compound 0.08 µM): 0.838 | relative viability (COR-L23; first compound 0.253 µM): 0.65 | relative viability (COR-L23; first compound 0.8 µM): 0.68 | relative viability (COR-L23; first compound 2.53 µM): 0.758 | relative viability (SK-MES-1; first compound 0.08 µM): 1.12 | relative viability (SK-MES-1; first compound 0.253 µM): 1.02 | relative viability (SK-MES-1; first compound 0.8 µM): 0.969 | relative viability (SK-MES-1; first compound 2.53 µM): 0.932 | relative viability (Calu-6; first compound 0.08 µM): 0.854 | relative viability (Calu-6; first compound 0.253 µM): 0.786 | relative viability (Calu-6; first compound 0.8 µM): 0.741 | relative viability (Calu-6; first compound 2.53 µM): 0.752 | relative viability (NCI-H1437; first compound 0.08 µM): 0.924 | relative viability (NCI-H1437; first compound 0.253 µM): 0.853 | relative viability (NCI-H1437; first compound 0.8 µM): 0.977 | relative viability (NCI-H1437; first compound 2.53 µM): 0.989 | relative viability (SW 1573; first compound 0.08 µM): 0.923 | relative viability (SW 1573; first compound 0.253 µM): 0.745 | relative viability (SW 1573; first compound 0.8 µM): 0.822 | relative viability (SW 1573; first compound 2.53 µM): 0.856 | relative viability (NCI-H1299; first compound 0.08 µM): 0.949 | relative viability (NCI-H1299; first compound 0.253 µM): 0.924 | relative viability (NCI-H1299; first compound 0.8 µM): 0.95 | relative viability (NCI-H1299; first compound 2.53 µM): 0.968 | relative viability (ABC-1; first compound 0.08 µM): 1.45 | relative viability (ABC-1; first compound 0.253 µM): 0.847 | relative viability (ABC-1; first compound 0.8 µM): 1.07 | relative viability (ABC-1; first compound 2.53 µM): 0.987 | relative viability (A549; first compound 0.08 µM): 0.932 | relative viability (A549; first compound 0.253 µM): 0.696 | relative viability (A549; first compound 0.8 µM): 0.742 | relative viability (A549; first compound 2.53 µM): 0.761 | relative viability (EBC-1; first compound 0.08 µM): 0.176 | relative viability (EBC-1; first compound 0.253 µM): 0.194 | relative viability (EBC-1; first compound 0.8 µM): 0.202 | relative viability (EBC-1; first compound 2.53 µM): 0.223 | relative viability (NCI-H1651; first compound 0.08 µM): 0.962 | relative viability (NCI-H1651; first compound 0.253 µM): 0.823 | relative viability (NCI-H1651; first compound 0.8 µM): 0.837 | relative viability (NCI-H1651; first compound 2.53 µM): 0.862 | relative viability (IA-LM; first compound 0.08 µM): 0.809 | relative viability (IA-LM; first compound 0.253 µM): 0.702 | relative viability (IA-LM; first compound 0.8 µM): 1.1 | relative viability (IA-LM; first compound 2.53 µM): 0.975 | relative viability (ChaGo-K-1; first compound 0.08 µM): 1.33 | relative viability (ChaGo-K-1; first compound 0.8 µM): 1.09 | relative viability (ChaGo-K-1; first compound 2.53 µM): 1.21 | relative viability (NCI-H1703; first compound 0.08 µM): 0.722 | relative viability (NCI-H1703; first compound 0.253 µM): 0.756 | relative viability (NCI-H1703; first compound 0.8 µM): 0.864 | relative viability (NCI-H1703; first compound 2.53 µM): 0.555

COc1nc(C)cnc1NS(=O)(=O)c1cccnc1-c1ccc(-c2nnco2)cc1 [Zibotentan] + Cc1nc(NC(=O)N2CCC[C@H]2C(N)=O)sc1-c1ccnc(C(C)(C)C(F)(F)F)c1 [Alpelisib] (partner 2 µM)
relative viability (COR-L23; first compound 0.08 µM): 0.847 | relative viability (COR-L23; first compound 0.253 µM): 0.655 | relative viability (COR-L23; first compound 0.8 µM): 0.831 | relative viability (COR-L23; first compound 2.53 µM): 0.824 | relative viability (SK-MES-1; first compound 0.08 µM): 0.947 | relative viability (SK-MES-1; first compound 0.253 µM): 0.871 | relative viability (SK-MES-1; first compound 0.8 µM): 0.948 | relative viability (SK-MES-1; first compound 2.53 µM): 0.989 | relative viability (Calu-6; first compound 0.08 µM): 1 | relative viability (Calu-6; first compound 0.253 µM): 0.986 | relative viability (Calu-6; first compound 0.8 µM): 0.98 | relative viability (Calu-6; first compound 2.53 µM): 1.1 | relative viability (NCI-H1437; first compound 0.08 µM): 0.949 | relative viability (NCI-H1437; first compound 0.253 µM): 0.867 | relative viability (NCI-H1437; first compound 0.8 µM): 0.913 | relative viability (NCI-H1437; first compound 2.53 µM): 0.973 | relative viability (SW 1573; first compound 0.08 µM): 0.726 | relative viability (SW 1573; first compound 0.253 µM): 0.639 | relative viability (SW 1573; first compound 0.8 µM): 0.775 | relative viability (SW 1573; first compound 2.53 µM): 0.758 | relative viability (NCI-H1299; first compound 0.08 µM): 1.06 | relative viability (NCI-H1299; first compound 0.253 µM): 1.05 | relative viability (NCI-H1299; first compound 0.8 µM): 1.06 | relative viability (NCI-H1299; first compound 2.53 µM): 1.07 | relative viability (ABC-1; first compound 0.08 µM): 1.1 | relative viability (ABC-1; first compound 0.253 µM): 0.689 | relative viability (ABC-1; first compound 0.8 µM): 1.11 | relative viability (ABC-1; first compound 2.53 µM): 1.07 | relative viability (A549; first compound 0.08 µM): 0.852 | relative viability (A549; first compound 0.253 µM): 0.578 | relative viability (A549; first compound 0.8 µM): 0.704 | relative viability (A549; first compound 2.53 µM): 0.88 | relative viability (EBC-1; first compound 0.08 µM): 0.826 | relative viability (EBC-1; first compound 0.253 µM): 0.855 | relative viability (EBC-1; first compound 0.8 µM): 0.944 | relative viability (EBC-1; first compound 2.53 µM): 0.857 | relative viability (NCI-H1651; first compound 0.08 µM): 0.882 | relative viability (NCI-H1651; first compound 0.253 µM): 0.88 | relative viability (NCI-H1651; first compound 0.8 µM): 0.88 | relative viability (NCI-H1651; first compound 2.53 µM): 1.04 | relative viability (IA-LM; first compound 0.08 µM): 0.799 | relative viability (IA-LM; first compound 0.253 µM): 0.725 | relative viability (IA-LM; first compound 0.8 µM): 0.646 | relative viability (IA-LM; first compound 2.53 µM): 0.812 | relative viability (NCI-H1703; first compound 0.08 µM): 0.363 | relative viability (NCI-H1703; first compound 0.253 µM): 0.386 | relative viability (NCI-H1703; first compound 0.8 µM): 0.464 | relative viability (NCI-H1703; first compound 2.53 µM): 0.237
